# Source: paper PMC5423977, “Safety, pharmacokinetics, and pharmacodynamics of BMS-986142, a novel reversible BTK inhibitor, in healthy participants” (European Journal of Clinical Pharmacology, 2017)
# Assay: Safety and tolerability (adverse events), Study 1 MAD in healthy participants
# Type: in vivo, human
# Conditions: n = 6
smiles,measurement,setting,value
"Cc1c(-c2c(F)cc(C(N)=O)c3[nH]c4c(c23)CC[C@H](C(C)(C)O)C4)cccc1-n1c(=O)c2cccc(F)c2n(C)c1=O [BMS-986142, 6-fluoro-5-(R)-(3-(S)-(8-fluoro-1-methyl-2,4-dioxo-1,2-dihydroquinazolin-3(4H)-yl)-2-methylphenyl)-2-(S)-(2-hydroxypropan-2-yl)-2,3,4,9-tetrahydro-1H-carbazole-8-carboxamide]",AE SOC: Ear and labyrinth disorders,MAD 25 mg QD,0 n (%)
same,AE SOC: Eye disorders,MAD 25 mg QD,1 (16.7) n (%)
same,AE SOC: Gastrointestinal Disorders,MAD 25 mg QD,0 n (%)
same,AE SOC: Infections and infestations,MAD 25 mg QD,0 n (%)
same,"AE SOC: Injury, poisoning and procedural complications",MAD 25 mg QD,1 (16.7) n (%)
same,AE SOC: Investigations,MAD 25 mg QD,0 n (%)
same,AE SOC: Musculoskeletal and connective tissue disorders,MAD 25 mg QD,0 n (%)
same,AE SOC: Nervous system disorders,MAD 25 mg QD,0 n (%)
same,AE SOC: Psychiatric disorders,MAD 25 mg QD,0 n (%)
same,"AE SOC: Respiratory, thoracic and mediastinal disorders",MAD 25 mg QD,1 (16.7) n (%)
same,AE SOC: Skin and subcutaneous tissue disorders,MAD 25 mg QD,0 n (%)
same,AE: Abdominal pain,MAD 25 mg QD,0 n (%)
same,AE: Back pain,MAD 25 mg QD,0 n (%)
same,AE: Blood creatinine phosphokinase increased,MAD 25 mg QD,0 n (%)
same,AE: Cerumen impaction,MAD 25 mg QD,0 n (%)
same,AE: Cough,MAD 25 mg QD,1 (16.7) n (%)
same,AE: Diarrhoea,MAD 25 mg QD,0 n (%)
same,AE: Eye pain,MAD 25 mg QD,1 (16.7) n (%)
same,AE: Haemoptysis,MAD 25 mg QD,0 n (%)
same,AE: Headache,MAD 25 mg QD,0 n (%)
same,AE: Psychotic disorder,MAD 25 mg QD,0 n (%)
same,AE: Rash,MAD 25 mg QD,0 n (%)
same,AE: Somnolence,MAD 25 mg QD,0 n (%)
same,AE: Syncope,MAD 25 mg QD,0 n (%)
same,AE: Thermal burn,MAD 25 mg QD,1 (16.7) n (%)
same,AE: Throat irritation,MAD 25 mg QD,0 n (%)
same,AE: Upper respiratory tract infection,MAD 25 mg QD,0 n (%)
same,Total subjects with an event,MAD 25 mg QD,2 (33.3) n (%)
same,AE SOC: Ear and labyrinth disorders,MAD 75 mg QD,1 (16.7) n (%)
same,AE SOC: Eye disorders,MAD 75 mg QD,0 n (%)
same,AE SOC: Gastrointestinal Disorders,MAD 75 mg QD,2 (33.3) n (%)
same,AE SOC: Infections and infestations,MAD 75 mg QD,0 n (%)
same,"AE SOC: Injury, poisoning and procedural complications",MAD 75 mg QD,0 n (%)
same,AE SOC: Investigations,MAD 75 mg QD,0 n (%)
same,AE SOC: Musculoskeletal and connective tissue disorders,MAD 75 mg QD,0 n (%)
same,AE SOC: Nervous system disorders,MAD 75 mg QD,1 (16.7) n (%)
same,AE SOC: Psychiatric disorders,MAD 75 mg QD,1 (16.7) n (%)
same,"AE SOC: Respiratory, thoracic and mediastinal disorders",MAD 75 mg QD,1 (16.7) n (%)
same,AE SOC: Skin and subcutaneous tissue disorders,MAD 75 mg QD,0 n (%)
same,AE: Abdominal pain,MAD 75 mg QD,1 (16.7) n (%)
same,AE: Back pain,MAD 75 mg QD,0 n (%)
same,AE: Blood creatinine phosphokinase increased,MAD 75 mg QD,0 n (%)
same,AE: Cerumen impaction,MAD 75 mg QD,1 (16.7) n (%)
same,AE: Cough,MAD 75 mg QD,0 n (%)
same,AE: Diarrhoea,MAD 75 mg QD,1 (16.7) n (%)
same,AE: Eye pain,MAD 75 mg QD,0 n (%)
same,AE: Haemoptysis,MAD 75 mg QD,1 (16.7) n (%)
same,AE: Headache,MAD 75 mg QD,1 (16.7) n (%)
same,AE: Psychotic disorder,MAD 75 mg QD,1 (16.7) n (%)
same,AE: Rash,MAD 75 mg QD,0 n (%)
same,AE: Somnolence,MAD 75 mg QD,0 n (%)
same,AE: Syncope,MAD 75 mg QD,0 n (%)
same,AE: Thermal burn,MAD 75 mg QD,0 n (%)
same,AE: Throat irritation,MAD 75 mg QD,1 (16.7) n (%)
same,AE: Upper respiratory tract infection,MAD 75 mg QD,0 n (%)
same,Total subjects with an event,MAD 75 mg QD,4 (66.7) n (%)
same,AE SOC: Ear and labyrinth disorders,MAD 200 mg QD,0 n (%)
same,AE SOC: Eye disorders,MAD 200 mg QD,0 n (%)
same,AE SOC: Gastrointestinal Disorders,MAD 200 mg QD,0 n (%)
same,AE SOC: Infections and infestations,MAD 200 mg QD,1 (16.7) n (%)
same,"AE SOC: Injury, poisoning and procedural complications",MAD 200 mg QD,0 n (%)
same,AE SOC: Investigations,MAD 200 mg QD,0 n (%)
same,AE SOC: Musculoskeletal and connective tissue disorders,MAD 200 mg QD,1 (16.7) n (%)
same,AE SOC: Nervous system disorders,MAD 200 mg QD,0 n (%)
same,AE SOC: Psychiatric disorders,MAD 200 mg QD,0 n (%)
same,"AE SOC: Respiratory, thoracic and mediastinal disorders",MAD 200 mg QD,0 n (%)
same,AE SOC: Skin and subcutaneous tissue disorders,MAD 200 mg QD,0 n (%)
same,AE: Abdominal pain,MAD 200 mg QD,0 n (%)
same,AE: Back pain,MAD 200 mg QD,1 (16.7) n (%)
same,AE: Blood creatinine phosphokinase increased,MAD 200 mg QD,0 n (%)
same,AE: Cerumen impaction,MAD 200 mg QD,0 n (%)
same,AE: Cough,MAD 200 mg QD,0 n (%)
same,AE: Diarrhoea,MAD 200 mg QD,0 n (%)
same,AE: Eye pain,MAD 200 mg QD,0 n (%)
same,AE: Haemoptysis,MAD 200 mg QD,0 n (%)
